Results published in ChEMBL document CHEMBL1150311, “4-Methyl-5-phenyl triazoles as selective inhibitors of 11beta-hydroxysteroid dehydrogenase type I” (Bioorg Med Chem Lett, 2008).

Legend:
[1] = molecular target: T1, 11-beta-hydroxysteroid dehydrogenase type 2 (Homo sapiens, UniProt P80365); assay: Inhibition of human 11beta HSD2
T1 sequence (P80365 whole entry): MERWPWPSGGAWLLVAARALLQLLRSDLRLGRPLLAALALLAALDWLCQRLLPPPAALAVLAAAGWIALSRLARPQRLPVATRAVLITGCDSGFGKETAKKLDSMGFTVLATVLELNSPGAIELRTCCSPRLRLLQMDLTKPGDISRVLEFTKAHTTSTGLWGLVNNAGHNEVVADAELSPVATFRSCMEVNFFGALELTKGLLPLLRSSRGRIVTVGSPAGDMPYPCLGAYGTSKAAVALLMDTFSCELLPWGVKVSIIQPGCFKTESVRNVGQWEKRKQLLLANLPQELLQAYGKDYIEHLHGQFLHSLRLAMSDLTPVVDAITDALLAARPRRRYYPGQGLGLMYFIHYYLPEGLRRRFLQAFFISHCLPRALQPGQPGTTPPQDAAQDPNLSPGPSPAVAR

[2] = molecular target: 11-beta-hydroxysteroid dehydrogenase 1 (Mus musculus, UniProt P50172); assay: Inhibition of mouse 11beta HSD1 by SPA assay
11-beta-hydroxysteroid dehydrogenase 1 (Mus musculus, UniProt P50172), sequence (P50172 whole entry): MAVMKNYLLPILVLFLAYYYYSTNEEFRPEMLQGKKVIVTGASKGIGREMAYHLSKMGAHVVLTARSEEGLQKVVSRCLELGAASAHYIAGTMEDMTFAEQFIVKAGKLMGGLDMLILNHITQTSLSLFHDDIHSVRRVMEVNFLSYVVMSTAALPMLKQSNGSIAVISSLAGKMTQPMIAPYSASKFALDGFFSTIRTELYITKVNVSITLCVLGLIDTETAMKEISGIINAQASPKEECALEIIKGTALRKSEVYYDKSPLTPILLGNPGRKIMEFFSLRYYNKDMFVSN

[3] = system: Mus musculus; assay: Inhibition of [3H]cortisone to [3H]cortisol conversion in mouse at 10 mg/kg, po administered as single dose after 1 hr; format: functional
[4] = molecular target: 11-beta-hydroxysteroid dehydrogenase 1 (Homo sapiens, UniProt P28845); assay: Inhibition of human 11beta HSD1 by SPA assay
11-beta-hydroxysteroid dehydrogenase 1 (Homo sapiens, UniProt P28845), sequence (P28845 whole entry): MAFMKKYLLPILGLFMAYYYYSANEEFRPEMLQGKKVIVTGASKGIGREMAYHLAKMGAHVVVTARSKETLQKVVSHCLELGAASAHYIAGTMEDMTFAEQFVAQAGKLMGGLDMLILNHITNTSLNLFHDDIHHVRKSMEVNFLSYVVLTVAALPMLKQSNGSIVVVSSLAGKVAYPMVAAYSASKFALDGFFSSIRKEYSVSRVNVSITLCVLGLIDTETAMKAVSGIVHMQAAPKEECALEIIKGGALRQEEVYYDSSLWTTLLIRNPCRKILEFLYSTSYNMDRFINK

[5] = molecular target: T2, 11-beta-hydroxysteroid dehydrogenase type 2 (Mus musculus, UniProt P51661); assay: Inhibition of mouse 11beta HSD2
T2 sequence (P51661 whole entry): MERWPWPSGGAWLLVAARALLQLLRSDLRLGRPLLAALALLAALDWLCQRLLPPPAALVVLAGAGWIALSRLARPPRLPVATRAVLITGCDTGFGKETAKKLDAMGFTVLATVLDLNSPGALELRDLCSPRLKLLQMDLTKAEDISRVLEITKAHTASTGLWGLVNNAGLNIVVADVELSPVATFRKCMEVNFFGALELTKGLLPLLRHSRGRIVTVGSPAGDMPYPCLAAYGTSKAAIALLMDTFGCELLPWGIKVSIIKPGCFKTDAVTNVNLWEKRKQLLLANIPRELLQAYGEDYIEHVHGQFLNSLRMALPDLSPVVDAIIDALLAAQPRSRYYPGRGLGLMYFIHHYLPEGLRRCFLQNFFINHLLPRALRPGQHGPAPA

[6] = system: Mus musculus; assay: Inhibition of [3H]cortisone to [3H]cortisol conversion in mouse at 10 mg/kg, po administered as single dose after 4 hrs; format: functional
[7] = molecular target: T3, Nuclear receptor subfamily 1 group I member 2 (Homo sapiens, UniProt O75469); assay: Agonist activity at human PXR; format: functional
T3 sequence (O75469 whole entry): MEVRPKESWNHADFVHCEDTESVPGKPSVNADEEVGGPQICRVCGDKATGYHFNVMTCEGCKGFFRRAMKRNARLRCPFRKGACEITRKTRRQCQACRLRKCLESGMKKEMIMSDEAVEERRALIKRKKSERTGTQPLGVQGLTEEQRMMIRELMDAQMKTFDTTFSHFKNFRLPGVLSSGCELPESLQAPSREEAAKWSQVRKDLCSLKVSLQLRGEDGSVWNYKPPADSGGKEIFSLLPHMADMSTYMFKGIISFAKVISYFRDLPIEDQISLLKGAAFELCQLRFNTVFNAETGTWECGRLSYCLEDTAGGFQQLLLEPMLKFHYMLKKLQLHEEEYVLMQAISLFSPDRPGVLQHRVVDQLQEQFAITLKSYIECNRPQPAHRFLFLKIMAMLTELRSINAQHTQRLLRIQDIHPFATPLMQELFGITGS

[8] = molecular target: T3, Nuclear receptor subfamily 1 group I member 2; assay: Agonist activity at human PXR at 10 uM; format: functional

Row | SMILES | IC50 [1] | IC50 [2] | IC50 [4] | IC50 [5] | EC50 [7] | Activity [8] | inhibition in vivo at 10 mg/kg [3] | inhibition in vivo at 10 mg/kg [6]
1 | Clc1ccc(C2(c3nnc4n3CCCCCC4)CCC2)cc1 | > 4000 nM |  | 1.3 nM | > 4000 nM |  |  |  | 
2 | Cn1c(-c2cccc(OC(F)(F)F)c2)nnc1C1(c2ccc(Cl)cc2)CCC1 | > 4000 nM | 36 nM | 2.2 nM | > 4000 nM |  |  |  | 
3 | Cn1c(-c2ccccc2OC(F)(F)F)nnc1C1(c2ccc(Cl)cc2)CCC1 | > 4000 nM | 4.1 nM | 2.3 nM | > 4000 nM |  |  | 59% | 44%
4 | Cn1c(-c2ccccc2O)nnc1C1(c2ccc(Cl)cc2)CCC1 | > 4000 nM | 17 nM | 1.8 nM | > 4000 nM |  |  | -2% | -2%
5 | Cn1c(-c2ccc(-n3ccnc3S(C)(=O)=O)cc2Cl)nnc1C1(c2ccc(Cl)cc2)CCC1 |  | 9.4 nM | 14 nM | > 4000 nM | 7900 nM | 23% |  | 
6 | Cc1cn(-c2ccc(-c3nnc(C4(c5ccc(Cl)cc5)CCC4)n3C)c(Cl)c2)c(C)n1 |  | 7.2 nM | 6.9 nM | > 4000 nM |  |  |  | 
7 | Cn1c(-c2ccc(Oc3ccccc3)cc2)nnc1C1(c2ccc(Cl)cc2)CCC1 | > 4000 nM | 3.7 nM | 26 nM | > 4000 nM |  |  |  | 
8 | Cn1c(-c2ccccc2)nnc1C12CC3CC(CC(C3)C1)C2 [FIG 1] | > 4000 nM | 109 nM | 37 nM | > 4000 nM |  |  | 85% | 47%
9 | Cn1c(-c2cccc(-c3ccccc3)c2)nnc1C1(c2ccc(Cl)cc2)CCC1 | > 4000 nM | 56 nM | 4.3 nM | > 4000 nM |  |  | -2% | -2%
10 | COc1ccccc1-c1nnc(C2(c3ccc(Cl)cc3)CCC2)n1C | > 4000 nM | 7.8 nM | 2.7 nM | > 4000 nM |  |  | 28% | 12%
11 | Cn1c(-c2ccccc2C(F)(F)F)nnc1C1(c2ccc(Cl)cc2)CCC1 | > 4000 nM | 4 nM | 2 nM | > 4000 nM |  |  | 73% | 63%
12 | C1CCc2nnc(C34CC5CC(CC(C5)C3)C4)n2CC1 | > 3000 nM |  |  | > 10000 nM |  |  | 31% | 21%
13 | Cc1nc2ccccc2n1-c1ccc(-c2nnc(C3(c4ccc(Cl)cc4)CCC3)n2C)c(Cl)c1 |  | 57 nM | 12 nM | > 4000 nM |  |  |  | 
14 | Cn1c(-c2ccc(Cc3ccccc3)cc2)nnc1C1(c2ccc(Cl)cc2)CCC1 | > 4000 nM | 18 nM | 68 nM | > 4000 nM |  |  | 20% | -4%
15 | CSc1nccn1-c1ccc(-c2nnc(C3(c4ccc(Cl)cc4)CCC3)n2C)c(Cl)c1 |  | 3.9 nM | 3.9 nM | > 4000 nM |  |  |  | 
16 | Cn1c(-c2ccc(-c3ccc(F)cc3)cc2)nnc1C1(c2ccc(Cl)cc2)CCC1 | > 4000 nM | 9.1 nM | 11 nM | > 4000 nM |  |  |  | 

Second part, led by results:

Row | IC50 [1] | IC50 [2] | IC50 [4] | IC50 [5] | EC50 [7] | Activity [8] | SMILES | inhibition in vivo at 10 mg/kg [3] | inhibition in vivo at 10 mg/kg [6]
17 | > 4000 nM | 5.4 nM | 3 nM | > 4000 nM |  |  | Cn1c(-c2ccc(-n3cccc3)cc2)nnc1C1(c2ccc(Cl)cc2)CCC1 | 41% | 28%
18 | > 4000 nM | 26 nM | 9.3 nM | > 4000 nM |  |  | Cn1c(-c2ccc(C(F)(F)F)cc2)nnc1C1(c2ccc(Cl)cc2)CCC1 |  | 
19 | > 4000 nM | 2.2 nM | 10 nM | > 4000 nM |  |  | Cn1c(-c2ccc(OC3CC3)cc2)nnc1C1(c2ccc(Cl)cc2)CCC1 | 95% | 95%
20 | > 4000 nM | 6.9 nM | 13 nM | > 4000 nM |  |  | Cn1c(-c2ccc(OC(F)(F)F)cc2)nnc1C1(c2ccc(Cl)cc2)CCC1 | 64% | 27%
21 | > 4000 nM | 8.2 nM | 3.8 nM | > 4000 nM |  |  | Cn1c(-c2ccc(I)cc2)nnc1C1(c2ccc(Cl)cc2)CCC1 |  | 
22 | > 4000 nM | 3.5 nM | 0.28 nM | > 4000 nM |  |  | Cn1c(-c2ccccc2Cl)nnc1C1(c2ccc(Cl)cc2)CCC1 | 86% | 73%
23 | > 4000 nM | 4 nM | 11 nM | > 4000 nM |  |  | Cn1c(-c2ccc(-c3ccccc3)cc2)nnc1C1(c2ccc(Cl)cc2)CCC1 | 86% | 90%
24 | > 4000 nM | 1.8 nM | 14 nM | > 4000 nM |  |  | Cn1c(-c2ccc(C(C)(C)C)cc2)nnc1C1(c2ccc(Cl)cc2)CCC1 |  | 
25 | > 4000 nM | 13 nM | 1 nM | > 4000 nM |  |  | Cn1c(-c2ccc(Cl)cc2Cl)nnc1C1(c2ccc(Cl)cc2)CCC1 |  | 
26 | > 4000 nM | 3.1 nM | 44 nM | > 4000 nM |  |  | Cn1c(-c2ccc(-c3nccs3)cc2)nnc1C1(c2ccc(Cl)cc2)CCC1 | 92% | 67%
27 | > 4000 nM | 101 nM | 1.5 nM | > 4000 nM |  |  | Cn1c(-c2ccc(F)cc2)nnc1C1(c2ccc(Cl)cc2)CCC1 |  | 
28 | > 4000 nM | 21 nM | 2 nM | > 4000 nM |  |  | Cn1c(-c2ccccc2F)nnc1C1(c2ccc(Cl)cc2)CCC1 |  | 
29 | > 4000 nM | 21 nM | 5 nM | > 4000 nM |  |  | Cc1ccccc1-c1nnc(C2(c3ccc(Cl)cc3)CCC2)n1C | 9% | 1%
30 | > 4000 nM | 34 nM | 1 nM | > 4000 nM |  |  | Cn1c(-c2cccc(Cl)c2)nnc1C1(c2ccc(Cl)cc2)CCC1 | 24% | 12%
31 | > 4000 nM | 61 nM | 2 nM | > 4000 nM |  |  | Cn1c(-c2ccc(O)c(F)c2)nnc1C1(c2ccc(Cl)cc2)CCC1 | 3% | 6%
32 | > 4000 nM | 42 nM | 3 nM | > 4000 nM |  |  | COc1ccc(-c2nnc(C3(c4ccc(Cl)cc4)CCC3)n2C)cc1F | 10% | -1%
33 | > 4000 nM | 46 nM | 3.5 nM | > 4000 nM |  |  | Cn1c(-c2ccc(-n3ccnc3)cc2)nnc1C1(c2ccc(Cl)cc2)CCC1 | 79% | 44%
34 | > 4000 nM | 43 nM | 2.7 nM | > 4000 nM |  |  | Cn1c(-c2ccc(Cl)cc2)nnc1C1(c2ccc(Cl)cc2)CCC1 | 20% | 14%
35 | > 4000 nM | 163 nM | 2.2 nM | > 4000 nM |  |  | Cn1c(-c2cccc(F)c2)nnc1C1(c2ccc(Cl)cc2)CCC1 |  | 
36 | > 4000 nM | 52 nM | 1.7 nM | > 4000 nM |  |  | Cn1c(-c2ccccc2)nnc1C1(c2ccc(Cl)cc2)CCC1 | 47% | 29%
37 | > 4000 nM | 19 nM | 0.34 nM | > 4000 nM |  |  | Cn1c(-c2ccc(O)cc2)nnc1C1(c2ccc(Cl)cc2)CCC1 | 17% | 10%
38 | > 4000 nM | 19 nM | 1 nM | > 4000 nM |  |  | Cn1c(-c2cccc(O)c2)nnc1C1(c2ccc(Cl)cc2)CCC1 |  | 
